Consider 24 compounds from patent US20240368139A1, “NOVEL MODULATORS OF EHMT1 AND EHMT2 AND THERAPEUTIC USE THEREOF” (Tango Therapeutics, Inc., priority 2021, published 2024).

Structures are written as SMILES.

The test system of one test is H3K9me2 in HCT116 cells. Put plainly: HCT116 H3K9me2 in-cell western assay. The test is classed as cell-based. The conditions noted are these: Homo sapiens, HCT-116, 72 h, HCT116 cells, 72 hours incubation; read-out: H3K9me2 ICW IC50. The text has this: HCT116 cell line was purchased from ATCC (Manassas, VA, USA). […] Penicillin-Streptomycin and heat inactivated fetal bovine serum were purchased from Hyclone (Logan, UT, USA). DPBS, Corning^R were purchased from VWR (Radnor, PA, USA). Triton′ X-100 was purchased from Sigma (St. Louis, MO, USA). Intercept blocking buffer, DRAQ5, Licor Odyssey Infrared Scanner were purchased from Licor Biosciences (Lincoln, NB, USA). Plate washer was purchased from BioTek (Winooski, VT, USA). […] 16% Paraformaldehyde was purchased from Electron Microscopy Sciences (Hatfield, PA, USA). HCT116 cells were maintained in complete growth medium (RPMI supplemented with 10% heat inactivated fetal bovine serum, 1% Penicillin-Streptomycin) and cultured at 37° C. under 5% CO2. N^2-(4-methoxy-3-(3-(pyrrolidin-1-yl)propoxy)phenyl)-N^4,6-dimethyl]pyrimidine-2,4-diamine (synthesis disclosed in International Application WO2017181177A1) was used as a control compound.
HCT116 cells (ATCC) were trypsinized, counted and seeded in assay medium (RPMI supplemented with 10% heat inactivated fetal bovine serum, 1% Penicillin-Streptomycin) at a concentration of 2,000 cells per well to a 384-well cell culture plate with compounds in 50 μl per well. Plates were incubated with at 37° C. under 5% CO2 for 72 hours. After the incubation, 50 μl per well of 8% paraformaldehyde in PBS was added to the plates and incubated at room temperature for 20 minutes. Plates were transferred to a BioTek (EL406) plate washer and washed 5 times with 110 μl per well of wash buffer (1×PBS containing 0.1% Triton X-100). The plates were next blocked with 50 μl of Intercept blocking buffer for 1 hour at room temperature. Blocking buffer was removed and 30 μl per well of monoclonal primary antibody of H3K9me2 (CST) diluted 1:200 in Intercept blocking buffer were added and plates were incubated overnight at 4° C. The plates were then washed 5 times with 110 μl per well of wash buffer (1×PBS containing 0.1% Triton X-100). Next 30 μl per well of secondary was added (1:400 800 CW goat anti-rabbit IgG in blocking buffer) with 1:1000 DRAQ5 in blocking buffer and incubated for 2 hours at room temperature. The plates were washed 5 times with 110 μl per well of wash buffer (1×PBS containing 0.1% Triton X-100) then with 100 μl per well of water once. Plates were allowed to dry at room temperature then imaged on a Licor Odyssey Infrared Scanner which measured integrated intensity at 700 nm and 800 nm wavelength. Both 700 and 800 channels were scanned.
The average of the ratio values (800 nm/700 nm) for each well was calculated and used to determine the percentage for each test well in the plate. Compounds were serially diluted two-fold in 0.1% DMSO for a total of 10 test concentrations beginning at 10 μM. IC50 curves were generated using duplicate wells per concentration of compound. […] IC50 values were calculated using a non-linear regression of Prism.

The target of a further test is T1, human EHMT1 982-1266 (Homo sapiens, UniProt Q9H9B1).
T1 sequence (Q9H9B1 982-1266): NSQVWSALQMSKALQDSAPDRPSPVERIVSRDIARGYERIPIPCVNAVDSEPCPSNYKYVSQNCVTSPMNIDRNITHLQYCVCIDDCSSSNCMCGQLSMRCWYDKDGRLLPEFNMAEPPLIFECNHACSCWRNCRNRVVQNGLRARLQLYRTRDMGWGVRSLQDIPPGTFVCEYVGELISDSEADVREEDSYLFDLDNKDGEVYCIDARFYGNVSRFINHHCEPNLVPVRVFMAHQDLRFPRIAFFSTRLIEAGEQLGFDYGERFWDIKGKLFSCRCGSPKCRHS
Put plainly: EHMT1 enzyme assay on histone peptide substrate (3H-SAM SPA). The conditions noted are these: EHMT1 IC50, recombinant human EHMT1 982-1266, histone peptide substrate.

For another test, the target named is T2, human EHMT2 913-1193 (Homo sapiens, UniProt Q96KQ7).
T2 sequence (Q96KQ7 913-1193): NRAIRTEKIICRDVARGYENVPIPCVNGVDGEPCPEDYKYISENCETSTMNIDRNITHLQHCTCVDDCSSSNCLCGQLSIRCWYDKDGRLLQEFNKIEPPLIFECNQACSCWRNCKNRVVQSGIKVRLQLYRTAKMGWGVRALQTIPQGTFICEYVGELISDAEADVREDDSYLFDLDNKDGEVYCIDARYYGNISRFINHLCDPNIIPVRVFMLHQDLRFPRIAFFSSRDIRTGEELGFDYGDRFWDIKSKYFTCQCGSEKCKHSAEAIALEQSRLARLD
Briefly: EHMT2 enzyme assay on histone peptide substrate (3H-SAM SPA). Conditions: EHMT2 IC50, recombinant human EHMT2 913-1193, histone peptide substrate.

For `CNc1cc(C)nc(Nc2cc3c(c(C4=CCNC[C@H](O)C4)c2F)OC[C@H]3C)n1` (stereo in doubt) [Compound 398, rel-(3R)-5-[rel-(3S)-6-fluoro-3-methyl-5-[[4-methyl-6-(methylamino)pyrimidin-2-yl]amino]-2,3-dihydrobenzofuran-7-yl]-2,3,4,7-tetrahydro-1H-azepin-3-ol], the IC50 was under 100 nM with H3K9me2 in HCT116 cells, under 100 nM at human EHMT1 982-1266 and 100 to 500 nM at human EHMT2 913-1193.

Take `CNc1cc(C)nc(Nc2cc3c(c(C4=CCN(C)CCC4)c2F)OCC32CC2)n1` [Compound 171]: the results for the IC50 with H3K9me2 in HCT116 cells, at human EHMT1 982-1266 and at human EHMT2 913-1193 were under 100 nM, under 100 nM and 100 to 500 nM, respectively.

For the compound `CNc1cc(C)nc(Nc2cc3c(c(C4=CCN(CCOC)CCC4)c2)OC(F)(F)O3)n1` [Compound 158, N2-[2,2-difluoro-7-[1-(2-methoxyethyl)-2,3,4,7-tetrahydroazepin-5-yl]-1,3-benzodioxol-5-yl]-N4,6-dimethyl-pyrimidine-2,4-diamine], the IC50 in the test with H3K9me2 in HCT116 cells, on human EHMT1 982-1266 and on human EHMT2 913-1193 was over 2000 nM in each case.

`CNc1cc(C)nc(Nc2cc3c(c([C@H]4CC[C@H](N)CC4)c2)OCC3)n1` [Compound 153, N2-[7-(4-aminocyclohexyl)-2,3-dihydrobenzofuran-5-yl]-N4,6-dimethyl-pyrimidine-2,4-diamine]: the IC50 in the test on H3K9me2 in HCT116 cells, at human EHMT1 982-1266 and on human EHMT2 913-1193 was over 2000 nM throughout.

As for `CNc1cc(C)nc(Nc2cc3c(c(C4=C[C@H]5CNC[C@H]5C4)c2)OCC3)n1` (racemic) [Compound 133, N2-[7-(1,2,3,3a,6,6a-hexahydrocyclopenta [c]pyrrol-5-yl)-2,3-dihydrobenzofuran-5-yl]-N4,6-dimethyl-pyrimidine-2,4-diamine], the IC50 lay in the range of 500 to 2000 nM with H3K9me2 in HCT116 cells, 100 to 500 nM at human EHMT1 982-1266 and 500 to 2000 nM at human EHMT2 913-1193.

In the case of `CNc1cc(C)nc(Nc2cc3c(c(OCCN4CCCC4)c2)OCC3)n1` [Compound 112, N4,6-dimethyl-N2-[7-(2-pyrrolidin-1-ylethoxy)-2,3-dihydrobenzofuran-5-yl]pyrimidine-2,4-diamine], the IC50 in the test on H3K9me2 in HCT116 cells was 500 to 2000 nM; on human EHMT1 982-1266, 100 to 500 nM; on human EHMT2 913-1193, over 2000 nM.

On to `CNc1nc(Nc2cc3c(c(C4=CCN(C)CCC4)c2)OCC3)nc(C)c1C` [Compound 286], for which the IC50 is 100 to 500 nM in the test on H3K9me2 in HCT116 cells, under 100 nM at human EHMT1 982-1266 and 100 to 500 nM at human EHMT2 913-1193.

With `CNc1cc(CC(F)(F)F)nc(Nc2cc3c(c(C4=CCNCCC4)c2)OCC3)c1` [Compound 247], the IC50 in the test with H3K9me2 in HCT116 cells, at human EHMT1 982-1266 and at human EHMT2 913-1193 was 100 to 500 nM throughout.

`Cc1cc(NC2COC2)cc(Nc2cc3c(c(C4=CCNCCC4)c2)OCC3)n1` [Compound 313]: the IC50 in the test with H3K9me2 in HCT116 cells is 500 to 2000 nM; at human EHMT1 982-1266, 100 to 500 nM; at human EHMT2 913-1193, 100 to 500 nM.

Consider `CNc1cc(C)nc(Nc2cc3c(c(N4C[C@H]5CNC[C@H]5C4)c2)OCC3)n1` [Compound 128, N4,6-dimethyl-N2-[7-[rac-(3aS,6aR)-2,3,3a,4,6,6a-hexahydro-1H-pyrrolo[3,4-c]pyrrol-5-yl]-2,3-dihydrobenzofuran-5-yl]pyrimidine-2,4-diamine], for which the results for the IC50 in the test on H3K9me2 in HCT116 cells, on human EHMT1 982-1266 and at human EHMT2 913-1193 were 500 to 2000 nM, 500 to 2000 nM and over 2000 nM, respectively.

As to `[2H]C([2H])([2H])CNc1cc(C)nc(Nc2cc3c(c(C4=CCNCCC4)c2F)OCC3)n1` [Compound 231], the IC50 in the test with H3K9me2 in HCT116 cells, on human EHMT1 982-1266 and on human EHMT2 913-1193 was under 100 nM each time.

Turning to `[2H]Cc1nc(Nc2cc3c(c(C4=CCNCCC4)c2)OCO3)nc(NC([2H])([2H])[2H])c1F` [Compound 240], the IC50 in the test with H3K9me2 in HCT116 cells, on human EHMT1 982-1266 and on human EHMT2 913-1193 was 100 to 500 nM throughout.

`CNc1cc(C)nc(Nc2cc3c(c(C4=CCNC(C)CC4)c2C)OCC3)n1` (single isomer, unassigned) [Compound 383]: the IC50 in the test on H3K9me2 in HCT116 cells, on human EHMT1 982-1266 and at human EHMT2 913-1193 was under 100 nM in each case.

As for `[2H]Cc1cc(NC([2H])([2H])[2H])nc(Nc2cc3c(c(C4=CCN(C)CCC4)c2F)OCC3)n1` [Compound 234], the IC50 with H3K9me2 in HCT116 cells, at human EHMT1 982-1266 and on human EHMT2 913-1193 was under 100 nM each time.

Consider `[2H]C([2H])([2H])Nc1cc(C)nc(Nc2cc3c(c(C4=CCN(C)CCC4)c2F)OCC3)n1` [Compound 238], for which the IC50 in the test on H3K9me2 in HCT116 cells, at human EHMT1 982-1266 and at human EHMT2 913-1193 was under 100 nM throughout.

For `Cc1cc(N)nc(Nc2cc3c(c(OCCCN4CCCC4)c2)OCC3)n1` [Compound 115, 6-methyl-N2-[7-(3-pyrrolidin-1-ylpropoxy)-2,3-dihydrobenzofuran-5-yl]pyrimidine-2,4-diamine], the IC50 is 500 to 2000 nM in the test on H3K9me2 in HCT116 cells, over 2000 nM on human EHMT1 982-1266 and over 2000 nM on human EHMT2 913-1193.

Consider `CNc1cc(C)nc(Nc2cc3c(c(C4=CCN(C)CCC4)c2F)OCC3)n1` [Compound 280, N2-[6-fluoro-7-(1-methyl-2,3,4,7-tetrahydroazepin-5-yl)-2,3-dihydrobenzofuran-5-yl]-N4,6-dimethyl-pyrimidine-2,4-diamine], for which the IC50 in the test with H3K9me2 in HCT116 cells, on human EHMT1 982-1266 and at human EHMT2 913-1193 was under 100 nM throughout.

Regarding `CNc1nc(Nc2cc3c(c(C4=CCNCCC4)c2)OCC3)nc(C)c1Cl` [Compound 284], the IC50 in the test with H3K9me2 in HCT116 cells is 100 to 500 nM; at human EHMT1 982-1266, 100 to 500 nM; on human EHMT2 913-1193, 500 to 2000 nM.

In the case of `CNc1cc(C)nc(Nc2cc3c(c(C4=CCN(C)CCC4)c2F)OCO3)n1` [Compound 203], the IC50 in the test with H3K9me2 in HCT116 cells, at human EHMT1 982-1266 and at human EHMT2 913-1193 was under 100 nM throughout.

Consider `CNc1cc(C)nc(Nc2cc3c(c(C4=CCN(C)CCC4)c2Cl)OCCO3)n1` [Compound 165, N2-[6-chloro-5-(1-methyl-2,3,4,7-tetrahydroazepin-5-yl)-2,3-dihydro-1,4-benzodioxin-7-yl]-N4,6-dimethyl-pyrimidine-2,4-diamine], for which the IC50 with H3K9me2 in HCT116 cells, at human EHMT1 982-1266 and at human EHMT2 913-1193 was under 100 nM each time.

As for `[2H]C([2H])([2H])CNc1cc(C)nc(Nc2cc3c(c(C4=CCNCCC4)c2)OCO3)n1` [Compound 246], the IC50 in the test with H3K9me2 in HCT116 cells, on human EHMT1 982-1266 and at human EHMT2 913-1193 was under 100 nM in each case.

As to `[2H]Cc1cc(NC([2H])([2H])[2H])nc(Nc2cc3c(c(C4=CCNCCC4)c2)OCO3)n1` [Compound 252], the IC50 with H3K9me2 in HCT116 cells, on human EHMT1 982-1266 and at human EHMT2 913-1193 was under 100 nM in each case.

Consider `[2H]C([2H])([2H])Nc1cc(C)nc(Nc2cc3c(c(C4=CCNCCC4)c2)OCCC3)n1` [Compound 264], for which the IC50 with H3K9me2 in HCT116 cells, at human EHMT1 982-1266 and on human EHMT2 913-1193 was under 100 nM throughout.

As to `CNc1cc(C)nc(Nc2cc3c(c(C4=CCN(CC(F)F)CCC4)c2F)OCC3)n1` [Compound 199], the IC50 lay in the range of 100 to 500 nM in the test with H3K9me2 in HCT116 cells, 100 to 500 nM at human EHMT1 982-1266 and 500 to 2000 nM at human EHMT2 913-1193.
